Data on 19 molecules can be found in ChEMBL document CHEMBL3045609, “Synthesis and fungicidal activity of tubulin polymerisation promoters. Part 1: pyrido[2,3-b]pyrazines” (2010).

Common to all, as to assay type: functional
The subject of one assay is Puccinia triticina. The assay can be described thus: Antifungal activity against Puccinia triticina infected 2 weeks old wheat plant assessed as reduction of diseased leaf area treated 1 day before infection measured after 11 days.
The test system of a further assay is Zymoseptoria tritici. In words: Antifungal activity against Zymoseptoria tritici infected 2 weeks old wheat plant assessed as reduction of diseased leaf area treated 1 day before infection measured after 16 to 18 days.
In a further assay the test system is Pyricularia grisea. The assay can be described thus: Antifungal activity against Magnaporthe grisea infected 3 weeks old rice plant assessed as reduction of diseased leaf area treated 2 days before infection measured after 6 days.

In brackets after ≈: the same amount, converted by molar mass.

For `COC(=O)[C@@H](Nc1c(-c2c(F)cc(F)cc2F)c(F)nc2nccnc12)C(C)C`, the EC80 with Puccinia triticina is under 6 mg/L; with Zymoseptoria tritici, 7 mg/L (≈ 17.1 µM); with Pyricularia grisea, 57 mg/L (≈ 140 µM).
Taken in the same sequence, the figures for `C=CCOC(=O)[C@@H](Nc1c(-c2c(F)cc(F)cc2F)c(F)nc2nccnc12)C(C)C` were 31 mg/L (≈ 71.4 µM), 21 mg/L (≈ 48.3 µM) and 110 mg/L (≈ 253 µM).
The like results for `CC(C)[C@@H](C)Nc1c(-c2c(F)cc(F)cc2F)c(F)nc2nccnc12` were, in that order, under 6 mg/L, under 2 mg/L and 11 mg/L (≈ 30.2 µM).
The like results for `CC(C)[C@@H](C)Nc1c(-c2c(F)cc(F)cc2F)c(Cl)nc2nccnc12` were, in that order, 77 mg/L (≈ 202 µM), 47 mg/L (≈ 123 µM) and over 200 mg/L.
`COc1nc2nccnc2c(N[C@H](C)C(C)C)c1-c1c(F)cc(F)cc1F`: the 80% effect concentration (EC80) with Puccinia triticina was 129 mg/L (≈ 343 µM); with Zymoseptoria tritici, 32 mg/L (≈ 85 µM); in the assay with Pyricularia grisea it was 100 mg/L (≈ 266 µM).
For `CC(C)CNc1c(-c2cccc(F)c2F)c(F)nc2nccnc12`, the EC80 was 157 mg/L (≈ 472 µM) in the assay on Puccinia triticina, 74 mg/L (≈ 223 µM) in the assay on Zymoseptoria tritici and over 200 mg/L in the assay on Pyricularia grisea.
Taken in the same sequence, the figures for `CC(C)CNc1c(-c2cc(F)ccc2F)c(F)nc2nccnc12` were 118 mg/L (≈ 355 µM), 80 mg/L (≈ 241 µM) and over 200 mg/L.
Taken in the same sequence, the figures for `COc1nc2nccnc2c(NCC(C)C)c1-c1c(F)cc(F)cc1F` were 35 mg/L (≈ 96.6 µM), 50 mg/L (≈ 138 µM) and 42 mg/L (≈ 116 µM).
As to `COc1nc2nccnc2c(NCC(C)C)c1-c1c(F)cccc1Cl`, the values for the 80% effect concentration (EC80) in the assay on Puccinia triticina, in the assay with Zymoseptoria tritici and with Pyricularia grisea were 134 mg/L (≈ 371 µM), over 200 mg/L and 110 mg/L (≈ 305 µM), respectively.
Regarding `COc1nc2nccnc2c(NCC(C)C)c1-c1ncc(Cl)cc1F`, the figures for the EC80 with Puccinia triticina, in the assay on Zymoseptoria tritici and in the assay with Pyricularia grisea were over 200 mg/L, 10 mg/L (≈ 27.6 µM) and 29 mg/L (≈ 80.2 µM), respectively.
Taken in the same sequence, the figures for `COc1nc2nccnc2c(N[C@H](C)C(C)C)c1-c1ncc(Cl)cc1Cl` were 26 mg/L (≈ 66.3 µM), under 6 mg/L and 15 mg/L (≈ 38.2 µM).
The like results for `COc1nc2nccnc2c(NCC(C)C)c1C#Cc1ccccc1` were, in that order, over 200 mg/L, 67 mg/L (≈ 202 µM) and over 200 mg/L.
The like results for `Fc1cc(F)c(-c2c(F)nc3nccnc3c2NCC(F)(F)F)c(F)c1` were, in that order, 20 mg/L (≈ 53.2 µM), 16 mg/L (≈ 42.5 µM) and 11 mg/L (≈ 29.2 µM).
For the molecule `C[C@H](Nc1c(-c2c(F)cc(F)cc2F)c(F)nc2nccnc12)C(F)(F)F`, the values for the EC80 in the assay with Puccinia triticina, in the assay on Zymoseptoria tritici and in the assay on Pyricularia grisea were 39 mg/L (≈ 99.9 µM), 5 mg/L (≈ 12.8 µM) and 35 mg/L (≈ 89.7 µM), respectively.
Taken in the same sequence, the figures for `CCC(Nc1c(-c2c(F)cc(F)cc2F)c(F)nc2nccnc12)C(F)(F)F` (configuration not stated) were 10 mg/L (≈ 24.7 µM), under 2 mg/L and 10 mg/L (≈ 24.7 µM).
Regarding `Fc1cc(F)c(-c2c(F)nc3nccnc3c2NC(C2CC2)C(F)(F)F)c(F)c1` (configuration not stated), the EC80 is 16 mg/L (≈ 38.4 µM) in the assay on Puccinia triticina, under 6 mg/L with Zymoseptoria tritici and 104 mg/L (≈ 250 µM) in the assay on Pyricularia grisea.
The like results for `CCC(C)Nc1c(-c2c(F)cc(F)cc2F)c(F)nc2nccnc12` (configuration not stated) were, in that order, 56 mg/L (≈ 160 µM), 26 mg/L (≈ 74.2 µM) and 9 mg/L (≈ 25.7 µM).
Regarding `CC(C)(C)Nc1c(-c2c(F)cc(F)cc2F)c(F)nc2nccnc12`, the 80% effect concentration (EC80) in the assay on Puccinia triticina is over 200 mg/L; in the assay on Zymoseptoria tritici, 19 mg/L (≈ 54.2 µM); in the assay on Pyricularia grisea, 35 mg/L (≈ 99.9 µM).
The like results for `CC(C)C(C)Nc1c(-c2c(F)cc(F)cc2F)c(F)nc2nccnc12` (configuration not stated) were, in that order, under 20 mg/L, 15 mg/L (≈ 41.2 µM) and 26 mg/L (≈ 71.4 µM).
